Source: patent US20230233500A1, “Gasdermin D (GSDMD) Succination for the Treatment of Inflammatory Disease” (University of Massachusetts, priority 2020, published 2023)
“Also recorded” adds a separate entry of the source. Where a name gives a salt, the structure may show the parent alone.

Tests used:
h.GSDMD = target: T1, h.GSDMD (Homo sapiens, UniProt P57764); assay: In vitro succination reaction with LC-MS/MS peptide mapping; assay type: binding; details: recombinant h.GSDMD
T1 sequence (P57764 1-484): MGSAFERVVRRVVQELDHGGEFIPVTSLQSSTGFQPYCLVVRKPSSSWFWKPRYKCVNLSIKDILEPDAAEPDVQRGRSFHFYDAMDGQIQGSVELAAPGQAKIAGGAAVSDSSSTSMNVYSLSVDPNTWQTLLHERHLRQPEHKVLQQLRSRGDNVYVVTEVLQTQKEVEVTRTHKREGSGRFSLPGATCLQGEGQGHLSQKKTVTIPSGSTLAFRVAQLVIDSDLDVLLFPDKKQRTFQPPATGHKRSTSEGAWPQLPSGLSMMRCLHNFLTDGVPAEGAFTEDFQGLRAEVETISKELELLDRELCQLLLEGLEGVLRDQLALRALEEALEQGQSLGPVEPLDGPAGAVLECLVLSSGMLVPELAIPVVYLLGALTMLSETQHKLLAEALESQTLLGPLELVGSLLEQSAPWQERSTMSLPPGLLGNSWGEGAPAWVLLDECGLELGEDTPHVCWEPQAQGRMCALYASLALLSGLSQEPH

m.GSDMD = target: T2, m.GSDMD (Mus musculus, UniProt Q9D8T2); assay: as above; assay type: binding; details: recombinant m.GSDMD
T2 sequence (Q9D8T2 1-487): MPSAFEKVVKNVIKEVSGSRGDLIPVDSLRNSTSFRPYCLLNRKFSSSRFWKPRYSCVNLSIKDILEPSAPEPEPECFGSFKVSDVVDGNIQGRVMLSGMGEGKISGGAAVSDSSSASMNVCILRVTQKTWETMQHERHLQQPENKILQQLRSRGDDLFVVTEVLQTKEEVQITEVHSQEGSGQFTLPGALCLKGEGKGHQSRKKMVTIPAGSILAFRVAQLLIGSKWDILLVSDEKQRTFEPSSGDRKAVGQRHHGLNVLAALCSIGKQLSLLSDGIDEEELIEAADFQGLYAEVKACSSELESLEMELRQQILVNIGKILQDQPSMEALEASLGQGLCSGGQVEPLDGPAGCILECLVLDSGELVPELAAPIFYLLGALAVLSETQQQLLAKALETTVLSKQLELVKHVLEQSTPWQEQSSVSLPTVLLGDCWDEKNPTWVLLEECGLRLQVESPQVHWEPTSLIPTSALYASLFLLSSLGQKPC

[1] = target: T3, caspase 1-GSDMD interactions (Mus musculus, UniProt Q9D8T2); assay: Caspase 1-GSDMD interaction and caspase 1 processing in BMDMs; assay type: cell-based
T3 construct: Immunoblots of casplp20 and GSDMD in BMDMs (I); endogenous in cells; host or cells: primary mouse BMDMs
T3 sequence (Q9D8T2 1-487): T2 sequence (Q9D8T2 1-487)
Source text: FIGS. 2A-J. Succination of GSDMD inhibits pyroptosis. Immunoblot of GSDMD in streptavidin pulldown from clicked lysates treated as indicated (A-B). Representative MS spectra of 2-monomethyl and 2-dimethylsuccination of GSDMD immunoprecipitated from fumarate treated BMDMs (C-D). Immunoblot of GSDMD in clicked lysates from transfected HEK293T. Cell death of HEK293T transfected as indicated (F-H). Immunoblots of casplp20 and GSDMD in BMDMs (I). Immunoblots of an in vitro binding assay of succinated and non-succinated GSDMD incubated with caspase 1 beads (J). A, B, F, J, […] representative images from three independent experiments. C, D, E, representative mass spec spectra from two independent experiments. H, I pooled data from three independent experiments. ***, P<0.001 (One-way anova). Error bars show means±SEM.
Primary BMDMs from WT or GsdmD^−/− mice were cultured in 12-well plates (1×10^6 cells per ml; 1 ml) or 10 cm dishes (2×10^6 cells per ml; 10 ml). HEK293T cells (2.5×10^5 cells per ml; 3 ml) were cultured in 6-well plates and transfected with FLAG-tagged GSDMD constructs where indicated. For cell lysate analysis cells were lysed directly in 1× Lamelli sample buffer. […] Samples were resolved by SDS-PAGE and stained using simply blue safe stain or transferred to nitrocellulose membranes and analyzed by immunoblot. […]

For `COC(=O)/C=C/C(=O)OC` [Fumarate, Dimethyl fumarate], the “In vitro cysteine succination sites” value (h.GSDMD) was “same cysteines”, the “In vitro cysteine succination sites” value (h.GSDMD; listed as DMF) was “Cys309; also recorded: Cys467; also recorded: Cys56; also recorded: Cys191; also recorded: Cys268” and the “In vitro cysteine succination sites” value (m.GSDMD) was “same cysteines”. The “processing of caspase 1” value ([1]; casp1 p20 immunoblot) was “not impaired” and the “caspase 1-GSDMD interactions” value ([1]; immunoblots) was “completely blocked”.
